Literature values in US20150072881A1 (priority 2010, published 2015).
Entries after “also recorded” stand apart in the source; their conditions may differ. Ends that are not written are not given here.

Assays:
[1] = test system: genes (and gene products, eg., mRNA or protein); details: in vivo
[2] = test system: Pomc; details: anterior pituitary cell line
[3] = test system: cAMP
[4] = test system: MAPK/ERK
[5] = test system: dopamine; details: directly or indirectly
[6] = test system: pronociceptin (PNOC); details: hippocampus of alcoholics
[7] = test system: opiate receptor-like 1 (OPRL-1); details: amygdala of alcoholics
[8] = test system: Tsc22d3; details: Western blotting; drug-regulated gene
[9] = test system: Sgk1; details: Western blotting; morphine-induced
[10] = test system: PC12 clonal cell line from chromaffin adrenal cells
[11] = test system: Leptin receptor expression in VTA

## N[C@@H]1C[C@H]1c1ccccc1 (racemic) [Tranylcypromine]
[1]
  mRNA increase: dopamine D3 receptor mRNA in shell of the nucleus accumbens

## Nc1ncnc2c1ncn2[C@@H]1O[C@@H]2COP(O)(=S)O[C@H]2[C@H]1O (single isomer, unassigned) [Rp-cAMPS, adenosine-3′,5′ cyclinc monophosphorothioate, Rp-isomer]
[1]
  blockade of substance-induced mRNA increase: CART - effect attenuated by inhibition of PKA with H89 [N-(2-

## CN(C)CCC=C1c2ccccc2CCc2ccccc21 [Amitriptyline]
[1]
  mRNA increase: dopamine D3 receptor mRNA in shell of the nucleus accumbens;; also recorded: D1 and D2 receptors [1]

## CC(N)Cc1ccccc1 (stereo not drawn) [Amphetamine]
[1]
  mRNA decrease: Penk in CeA and anterior medial CPu [1]; also recorded: GluR1 in nucleus acumbens shell, GluR2 in core and shell [3]
  mRNA increase: Penk in frontal cortex; Pdyn in AMG [1]; also recorded: mGluR8 in rat dorsal and ventral striatum, as well as cortex,; also recorded: After 3 days of withdrawl, GluR1 in PFC [3]; also recorded: Mu receptors in VTA; Pdyn in CPu and NAc [1]

## CCCCCCC(C)(C)c1ccc([C@@H]2C[C@H](O)CC[C@H]2CCCO)c(O)c1 [CP-55,940]
[1]
  mRNA increase: Increased Penk in NAc and CPu, Tu and Pir, HPT (both PVN

## CNCCCN1c2ccccc2CCc2ccccc21 [Desipramine]
[1]
  mRNA increase: dopamine D3 receptor mRNA in shell of the nucleus accumbens

## COc1ccc2c(c1)[C@]13CCCC[C@@H]1[C@H](C2)N(C)CC3 [Dextromethorphan]
[1]
  mRNA increase: 40 mg/kg ip in rats caused increase of tyrosine hydroxylase (TH)

## Cl.O=S(=O)(NCCNCC=Cc1ccc(Br)cc1)c1cccc2cnccc12 [H89, N-(2-[p-bromocinnamylamino]ethyl)-5-isoquinoline-sulfonamide hudrochloride]
[1]
  blockade of substance-induced mRNA increase: CART - effect attenuated by inhibition of PKA with H89 [N-(2-

## CC(=O)Oc1ccc2c3c1O[C@H]1[C@@H](OC(C)=O)C=C[C@H]4[C@@H](C2)N(C)CC[C@@]341 [Heroin]
[1]
  mRNA decrease: DAT in paranigral nucleus and mesolimbic division of the ventral tegmental; also recorded: area. Reduction of Nurr1expression with age in heroin users [2]; also recorded: tyrosine hydroxylase in mesolimbic dopamine neurons [3]
  mRNA increase: heroin abuse. Express higher Penk mRNA [1]; also recorded: TH and alpha synuclein in VTA PN in heroin users with no; also recorded: Penk; NAc PENK in Met/Met (control) heroin abusers [3]

## CN(C)CCCN1c2ccccc2CCc2ccccc21 [Imipramine]
[1]
  mRNA increase: dopamine D3 receptor mRNA in shell of the nucleus accumbens;

## CC(C)C[C@H](N)C(=O)O [Leucine]
[1]
  mRNA decrease: FTO in hypothalamus of rodents [1]

## CN[C@@H](C)Cc1ccccc1 [Methamphetamine]
[1]
  mRNA increase: Pdyn in HPT [1]; also recorded: Increased TNF-alpha in normal animals [2]

## CCCCCCCCCC(=O)O[C@H]1CC[C@H]2[C@@H]3CCC4=CC(=O)CC[C@@H]4[C@H]3CC[C@]12C [Nandrolone decanoate]
[1]
  mRNA decrease: Dopamine D(1)-receptor subtype in the caudate putamen and nucleus
  mRNA increase: Dopamine D(2) receptor at the lowest doeses in the caudate

## CC1NCCc2cc(O)c(O)cc21 (stereo not drawn) [R (+)- salsolinol]
[2]
  mRNA decrease: POMC anterior pituitary cell line [1]
[3]
  cAMP level / production: whereas R(+)- SAL does not affect cAMP production [1]

## CCCCC/C=C\C/C=C\C/C=C\C/C=C\CCCC(=O)N[C@H](C)CO [R-methanandamide]
[1]
  mRNA increase: Increased Penk in NAc and CPu, Tu and Pir, HPT (both PVN

## C[C@@H]1NCCc2cc(O)c(O)cc21 [S(−)-salsolinol]
[2]
  mRNA decrease: POMC anterior pituitary cell line [1]
[3]
  cAMP level / production: Decrease in cAMP level occurs after treatment with S(−)-SAL,

## Cc1c(C(=O)NN2CCCCC2)nn(-c2ccc(Cl)cc2Cl)c1-c1ccc(Cl)cc1 [SR 141716A]
[4]; in vivo
  inhibition of THC-induced MAPK/ERK activation: accumbens. This activation is totally inhibited by selective

## CCCCCc1cc(O)c2c(c1)OC(C)(C)[C@@H]1CCC(C)=C[C@@H]21 [THC, Delta-tetrahydrocannabinol]
[4]; dorsal striatum and nucleus accumbens
  activation (phosphorylation) of MAPK/ERK: THC induces a progressive and transient activation
[5]
  effect on dopamine release or re-uptake: enhance release or block re-uptake of dopamine
[1]
  mRNA increase: Increased Penk in NAc and CPu, Tu and Pir, HPT (both PVN; also recorded: BDNF in reward center (nucleus accumbens, medial prefrontal

## CCCN(CCC)C1Cc2cc(OC)c(OC)cc2C1 [U99194A]
[1]
  mRNA increase: c-fos (similar pattern to that produced by d-amphetamine) in

## CCO [ethanol]
[6]
  pronociceptin (PNOC) mRNA decrease: pronociceptin (PNOC), 1.7-fold in hippocampus of alcoholics
[5]
  effect on dopamine release or re-uptake: enhance release or block re-uptake of dopamine
[7]
  opiate receptor-like 1 (OPRL-1) mRNA decrease: opiate receptor-like 1 (OPRL-1) 1.4-fold in amygdala of alcoholics [2]

## CN1CC[C@]23c4c5ccc(O)c4O[C@H]2[C@@H](O)C=C[C@H]3[C@H]1C5 [morphine]
[8]
  Tsc22d3 protein level (increase): approximately 1.5 fold
[9]
  level of the Sgk1 protein (significant decrease): 0.75 fold

## CN1CCCC1c1cccnc1 (stereo not drawn) [nicotine]
[10]
  mRNA decrease: Dopamine D2 receptor and tyrosine hydroxylase in PC12 clonal cell line
[5]
  effect on dopamine release or re-uptake: enhance release or block re-uptake of dopamine
[1]
  mRNA decrease: POMC in MBH which was observed after 21 days of spontaneous; also recorded: withdrawl from nicotine; Pdyn in ventral shell of NAc [1]
  mRNA increase: Mu receptors in VTA; POMC in Arc; POMC in AL of the; also recorded: pituitary; Pdyn in CPu after nicotine withdrawl; Pdvn in HPT [1]; also recorded: c-fos in bed nucleus of stria terminalis, nucleus accumbens shell; also recorded: CREB phosphorylation when exposed to situation where; also recorded: MOR expression [4]; also recorded: c fos in limbic regions of adolescents [5]

## CC(N)Cc1ccc(Cl)cc1 (stereo not drawn) [para-chloroamphetamine]
[1]
  mRNA decrease: [1] repeated stress in pre-treated rats led to downregulation of BDNF mRNA
  mRNA increase: [1] repeated stress in pre-treated animals led to less

## CCN1CCC[C@H]1CNC(=O)c1c(O)c(Cl)cc(Cl)c1OC [raclopride]
[1]
  blockade of substance-induced mRNA increase: Cart in nucleus accumbens (effect blocked by both SCH-

## Leptin: Leptin administered directly to VTA
[11]; VTA
  firing rate: reduction
  intracellular JAK-STAT pathway: activates
[11]; direct administration to VTA
  food intake: Direct administration of leptin to VTA caused decreased food intake while

## Substance P (RPKPQQFFGLM; not fully specified (C-terminus); ends and bridges not checked; UniProt P20366 58-68, looked up)
[1]
  mRNA decrease: D2 receptor in nucleus accumbens and frontal cortex [1]
